Measurements taken from a melting point compilation (Tetko et al.; mined from patent text by program, amines drawn as free bases though some values may be those of a salt).

First: Nc1ccccc1C(=O)C=CC(=O)O
Second: CC(=O)OCCCCCC(=O)CC(=O)c1ccccc1
The melting point of the first is higher: 103 to 107 °C for the first, 23 to 24 °C for the second.

Compared with `CC1(C)CC(Nc2nc(NC3CC(C)(C)NC(C)(C)C3)nc(N(CO)C3CC(C)(C)NC(C)(C)C3)n2)CC(C)(C)N1`, `CCOc1ccc(N2CCN(c3c(C)c4c(c(OC)c3C)OC(C)(C)C4)CC2)cc1` is lower in melting point: 201 to 202 °C for the first, 152 to 154 °C for the second.

Compared with `CCOC(=O)c1cnc(=O)n2c1sc1cc(OC)ccc12`, `CCOC(=O)c1ccc2c(c1)sc1cc(N(C)C)ccc12` is lower in melting point: 231 to 232 °C for the first, 160 to 162 °C for the second.

Compared with `c1ccc2c3c([nH]c2c1)CNCC3`, `CCOC(=O)c1ccc2c(c1)sc1ccccc12` is lower in melting point: 190 to 191 °C for the first, 74 to 78 °C for the second.

First: CON(C(=O)c1cn(C)nc1C(F)F)C(C)Cc1c(Cl)sc(Cl)c1Cl (stereo unspecified)
Second: CC(=O)Nc1cnc(-c2cc(Cl)cc(Cl)c2Cl)c(N)n1
The melting point of the first is lower: 70 to 72 °C for the first, 200 to 203 °C for the second.

Compared with `CCN1c2ncc(CCc3ccncc3)cc2C(=O)N(C)c2ccc(I)nc21`, `CCCN1c2ccccc2C(=O)N(CC(=O)O)c2cc(Cc3c[nH]c4ccccc34)ccc21` is lower in melting point: 174 °C for the first, 160 to 170 °C for the second.

First: COC(=O)c1[nH]c(C)c2c1CN=C(c1ccccc1F)c1cc(Cl)ccc1-2
Second: Oc1ccc2c(-c3ccccc3F)noc2c1I
The melting point of the first is higher: 228 to 231 °C for the first, 212 to 214 °C for the second.

Compared with `COC(=O)CC1OCCN(CCc2c[nH]c3ccccc23)C1=O` (stereo unspecified), `CCOC(=O)CC(=O)Nc1sc(CC)cc1C(=O)c1ccccc1Cl` is lower in melting point: 144 °C for the first, 56 to 57 °C for the second.

First: Cc1nnc(S(C)(=O)=O)o1
Second: Cc1nnc(-c2ccc3ncn(-c4ccc(OC(F)F)cc4)c3c2)o1
The melting point of the first is lower: 70 to 71 °C for the first, 154 to 155 °C for the second.

First: CSc1nn2c(O)cc(CN(C)C)nc2c1S(=O)(=O)c1ccccc1
Second: CCC(C(=O)N(C)C)n1ccc(-c2ccccc2C)n1 (stereo unspecified)
The melting point of the first is higher: greater than 220 °C for the first, 48 to 51 °C for the second.

First: OCc1cc(-c2cnn3c(C(F)(F)F)cc(-c4ccc(Cl)c(Cl)c4)nc23)ccn1
Second: COC(=O)c1nc(NC(=O)c2ccccn2)ccc1Oc1nc(OC)cc(OC)n1
The melting point of the first is higher: 233 °C for the first, 146 to 150 °C for the second.

Compared with `C=CCn1c(=O)c2cnc(Nc3ccc(OCCN(CC)CC)cc3)nc2n(C(C)C)c1=O`, `CCCCOc1ncc(C(C)=O)cc1-c1nc2c(CC)n(CC3CC3)nc2c(=O)[nH]1` is higher in melting point: 90 to 96 °C for the first, 184 to 185 °C for the second.

Compared with `COc1ccc(-c2nc(-c3ccc[nH]3)sc2-c2ccc(OC)cc2)cc1`, `COC(=O)C1C(=O)Nc2ccccc2CC1c1ccc(OC)cc1` (stereo unspecified) is higher in melting point: 132 to 134 °C for the first, 217 to 219 °C for the second.

First: CCn1cc(C(=O)O)c(=O)c2c(F)c(F)c(N3CCCC3)c(F)c21
Second: O=c1cc(N2CCOCC2)nc2n1CC[C@@H](C(F)(F)F)N2
The melting point of the first is higher: greater than 320 °C for the first, 108 °C for the second.

First: COc1ccc(C2CCc3ccccc3C2O)cc1 (stereo unspecified)
Second: COc1ccc(Nc2cccc(Cl)c2[N+](=O)[O-])cc1
The melting point of the first is higher: 89 to 90.5 °C for the first, 73 to 74 °C for the second.

First: CCCn1c(=O)c2c(nn3cc(C4CC4)[nH]c23)n(Cc2ccccc2)c1=O
Second: COc1ccc(C2(CCN3CCC(C(=O)c4nc5ccccc5s4)CC3)CCN(C(=O)c3ccccc3)C2)cc1OC (stereo unspecified)
The melting point of the first is higher: 264 to 265 °C for the first, 74 to 76 °C for the second.

Compared with `CCCCCCn1c(=O)n(C2OC(CO)C(O)C2O)c2nc(N)[nH]c(=O)c21` (stereo unspecified), `CCCOC(=O)c1sc(C(=O)OCCC)c(OS(=O)(=O)c2ccc(Br)cc2)c1C` is lower in melting point: 196 to 199 °C for the first, 73 to 74 °C for the second.

First: CNC(C)CN1CCc2c(c(=O)oc3cc(OC)c(OC)cc23)C1 (stereo unspecified)
Second: COc1cc2c(cc1OC)C(CN1CCN(c3ccc(F)cc3)CC1)OCCC2 (stereo unspecified)
The melting point of the first is higher: 137 to 139 °C for the first, 135 to 136 °C for the second.

First: CC(C)(C)OC(=O)N1CCN2C(=O)OC(c3ccccc3)(c3ccccc3)C2C1 (stereo unspecified)
Second: CC(=O)Oc1c(Sc2ccccc2)sc2ccccc12
The melting point of the first is higher: 151 to 152 °C for the first, 88 to 90 °C for the second.

First: COc1cc(C(C)C)ccc1C1(O)C(=O)c2ccc(N)c(NC(C)=O)c2C1=O (stereo unspecified)
Second: COC(=O)c1cc(OC)cc(-c2ccc(NC(C)=O)cc2)n1
The melting point of the first is lower: 124 to 131 °C for the first, 223 to 224 °C for the second.

First: O=C(C=CC=Cc1ccccc1)C=Cc1ccc([N+](=O)[O-])cc1
Second: CC(=O)Oc1ccc(S(=O)(=O)ON=C2c3ccccc3-c3ccccc32)cc1
The melting point of the first is higher: 168 to 170 °C for the first, 167 to 168 °C for the second.

First: Clc1ncnc2cc3c(cc12)OCCO3
Second: Cc1ccc(Cl)cc1N1C(=O)CN(C(C)C)C1=S
The melting point of the first is higher: 169 to 174 °C for the first, 142 to 144 °C for the second.

First: COC(=O)c1nc(N)ccc1O
Second: CC(=O)c1ccc(Oc2ccc(O)cc2)cc1
The melting point of the first is higher: 170 to 173 °C for the first, 159 to 161 °C for the second.

Compared with `CC1SC(=O)NN=C1c1ccc2c(c1)C(C)(C)CC(=O)N2` (stereo unspecified), `CCOC(=O)C1=C(C(=O)OCC)C(c2cccc([N+](=O)[O-])c2)C(C(=O)OCC)=C(CC)N1` (stereo unspecified) is lower in melting point: 288 °C for the first, 153 °C for the second.

First: CN(C)CCN(c1ccccc1NCCOc1ccc(Cl)cc1)S(=O)(=O)c1ccc(Cl)cc1
Second: O=C(NCCCC(NC(=O)c1ccccc1)C(O)C(F)(F)F)c1ccccc1 (stereo unspecified)
The melting point of the first is lower: 99 °C for the first, 103 °C for the second.

Compound `CC(C)(C)OC(=O)NCCOc1noc2ccc(F)c(C#N)c12` has a melting point of 116 to 117 °C.
